ChEMBL document CHEMBL5291721, “A preclinical secondary pharmacology resource illuminates target-adverse drug reaction associations of marketed drugs” (Nat Commun, 2023)
Values joined by “and” are separate entries in the source; they are usually repeats but may differ in a detail not shown here. Identical values can stand only once.

Assays:
[1] = target: Gamma-aminobutyric acid receptor subunit alpha-1 (Rattus norvegicus, UniProt P62813)
[2] = target: Kappa-type opioid receptor (Homo sapiens, UniProt P41145)
Kappa-type opioid receptor, sequence (P41145 whole entry): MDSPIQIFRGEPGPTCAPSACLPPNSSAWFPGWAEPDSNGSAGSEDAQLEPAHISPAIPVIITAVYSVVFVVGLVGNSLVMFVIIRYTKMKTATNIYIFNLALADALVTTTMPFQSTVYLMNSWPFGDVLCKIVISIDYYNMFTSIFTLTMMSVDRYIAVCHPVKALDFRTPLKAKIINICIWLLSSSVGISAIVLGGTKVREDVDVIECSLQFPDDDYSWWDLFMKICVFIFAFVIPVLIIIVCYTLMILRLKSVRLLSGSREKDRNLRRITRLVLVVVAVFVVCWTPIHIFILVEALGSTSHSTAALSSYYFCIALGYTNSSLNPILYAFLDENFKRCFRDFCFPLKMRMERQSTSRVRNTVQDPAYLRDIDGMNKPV

[3] = target: T1, Muscarinic acetylcholine receptor M2 (Homo sapiens, UniProt P08172); type: functional, cell-based
T1 sequence (P08172 whole entry): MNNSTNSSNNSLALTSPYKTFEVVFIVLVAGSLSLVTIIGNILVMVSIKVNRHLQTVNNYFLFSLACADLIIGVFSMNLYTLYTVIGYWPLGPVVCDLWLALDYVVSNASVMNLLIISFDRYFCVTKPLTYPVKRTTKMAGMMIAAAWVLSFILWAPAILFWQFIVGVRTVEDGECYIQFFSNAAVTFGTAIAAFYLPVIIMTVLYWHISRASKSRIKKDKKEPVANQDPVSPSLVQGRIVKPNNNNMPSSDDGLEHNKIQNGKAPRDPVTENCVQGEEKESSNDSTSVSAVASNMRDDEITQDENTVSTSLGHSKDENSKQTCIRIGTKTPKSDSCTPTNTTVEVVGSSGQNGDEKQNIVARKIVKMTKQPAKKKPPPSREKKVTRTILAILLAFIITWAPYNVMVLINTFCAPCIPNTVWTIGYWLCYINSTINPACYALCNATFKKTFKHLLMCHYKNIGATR

Progesterone receptor [4] = target: T2, Progesterone receptor (Homo sapiens, UniProt P06401); type: functional
T2 sequence (P06401 whole entry): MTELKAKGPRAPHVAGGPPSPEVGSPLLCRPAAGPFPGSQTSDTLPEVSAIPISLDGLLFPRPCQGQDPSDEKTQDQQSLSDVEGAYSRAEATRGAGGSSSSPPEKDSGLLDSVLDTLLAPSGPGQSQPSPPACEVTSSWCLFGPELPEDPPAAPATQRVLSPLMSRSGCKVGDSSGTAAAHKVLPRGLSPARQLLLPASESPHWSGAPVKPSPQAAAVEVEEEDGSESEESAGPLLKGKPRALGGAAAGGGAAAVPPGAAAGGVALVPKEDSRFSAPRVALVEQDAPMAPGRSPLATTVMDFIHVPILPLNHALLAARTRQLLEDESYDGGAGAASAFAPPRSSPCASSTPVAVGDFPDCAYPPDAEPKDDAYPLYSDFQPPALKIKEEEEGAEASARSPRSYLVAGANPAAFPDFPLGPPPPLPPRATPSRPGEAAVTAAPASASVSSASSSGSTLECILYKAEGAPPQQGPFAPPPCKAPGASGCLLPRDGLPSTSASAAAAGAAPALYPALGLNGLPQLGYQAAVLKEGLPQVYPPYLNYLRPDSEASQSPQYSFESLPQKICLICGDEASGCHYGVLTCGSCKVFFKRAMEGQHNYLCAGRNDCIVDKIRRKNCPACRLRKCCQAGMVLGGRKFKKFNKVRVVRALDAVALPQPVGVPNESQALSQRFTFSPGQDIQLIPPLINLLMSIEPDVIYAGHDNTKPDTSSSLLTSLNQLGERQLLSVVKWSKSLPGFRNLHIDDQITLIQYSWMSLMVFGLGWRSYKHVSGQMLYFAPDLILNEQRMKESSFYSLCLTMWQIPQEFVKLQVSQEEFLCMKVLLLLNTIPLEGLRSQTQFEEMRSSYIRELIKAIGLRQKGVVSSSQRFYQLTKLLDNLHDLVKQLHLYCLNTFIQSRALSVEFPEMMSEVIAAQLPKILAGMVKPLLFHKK

Progesterone receptor [5] = target: T2, Progesterone receptor; type: functional; remark: listed apart in the source
B2 bradykinin receptor = target: T3, B2 bradykinin receptor (Homo sapiens, UniProt P30411)
T3 sequence (P30411 whole entry): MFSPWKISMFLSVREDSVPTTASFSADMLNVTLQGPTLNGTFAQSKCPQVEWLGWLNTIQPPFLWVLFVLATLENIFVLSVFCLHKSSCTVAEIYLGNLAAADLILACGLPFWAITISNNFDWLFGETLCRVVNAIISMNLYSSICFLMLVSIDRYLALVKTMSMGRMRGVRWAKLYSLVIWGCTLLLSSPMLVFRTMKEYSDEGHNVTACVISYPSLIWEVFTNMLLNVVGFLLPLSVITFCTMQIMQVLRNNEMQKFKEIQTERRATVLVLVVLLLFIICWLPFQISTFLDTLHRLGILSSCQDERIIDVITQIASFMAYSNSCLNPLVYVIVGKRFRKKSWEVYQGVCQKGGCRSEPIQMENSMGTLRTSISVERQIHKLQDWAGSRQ

[6] = target: 5-hydroxytryptamine receptor 2B (Homo sapiens, UniProt P41595); type: functional, cell-based
5-hydroxytryptamine receptor 2B, sequence (P41595 whole entry): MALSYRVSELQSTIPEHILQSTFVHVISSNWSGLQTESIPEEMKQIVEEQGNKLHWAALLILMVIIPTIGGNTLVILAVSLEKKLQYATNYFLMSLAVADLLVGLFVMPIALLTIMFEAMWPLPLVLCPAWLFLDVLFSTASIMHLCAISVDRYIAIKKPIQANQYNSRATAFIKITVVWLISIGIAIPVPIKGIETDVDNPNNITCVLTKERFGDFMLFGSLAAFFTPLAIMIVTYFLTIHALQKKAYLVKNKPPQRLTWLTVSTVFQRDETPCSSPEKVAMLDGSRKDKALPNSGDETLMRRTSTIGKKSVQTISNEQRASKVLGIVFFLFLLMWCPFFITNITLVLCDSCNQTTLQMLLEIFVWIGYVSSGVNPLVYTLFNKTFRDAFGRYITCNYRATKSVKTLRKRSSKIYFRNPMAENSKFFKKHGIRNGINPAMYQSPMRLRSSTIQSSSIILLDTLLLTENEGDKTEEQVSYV

[7] = target: T4, Neuropeptide Y receptor type 1 (Homo sapiens, UniProt P25929); settings: read-out: AC50
T4 sequence (P25929 whole entry): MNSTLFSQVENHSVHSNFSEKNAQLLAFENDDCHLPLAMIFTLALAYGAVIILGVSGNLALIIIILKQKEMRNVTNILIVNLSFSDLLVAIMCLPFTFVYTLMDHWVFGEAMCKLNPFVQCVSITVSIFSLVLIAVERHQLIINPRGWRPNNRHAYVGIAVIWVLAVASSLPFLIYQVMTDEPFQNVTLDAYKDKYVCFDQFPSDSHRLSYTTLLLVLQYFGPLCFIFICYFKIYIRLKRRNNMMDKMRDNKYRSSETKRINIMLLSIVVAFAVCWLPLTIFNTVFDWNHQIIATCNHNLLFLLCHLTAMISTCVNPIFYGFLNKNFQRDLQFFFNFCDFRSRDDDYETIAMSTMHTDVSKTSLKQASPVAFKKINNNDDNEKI

Melanocortin receptor 3 = Melanocortin receptor 3 (Homo sapiens, UniProt P41968)
Melanocortin receptor 3, sequence (P41968 whole entry): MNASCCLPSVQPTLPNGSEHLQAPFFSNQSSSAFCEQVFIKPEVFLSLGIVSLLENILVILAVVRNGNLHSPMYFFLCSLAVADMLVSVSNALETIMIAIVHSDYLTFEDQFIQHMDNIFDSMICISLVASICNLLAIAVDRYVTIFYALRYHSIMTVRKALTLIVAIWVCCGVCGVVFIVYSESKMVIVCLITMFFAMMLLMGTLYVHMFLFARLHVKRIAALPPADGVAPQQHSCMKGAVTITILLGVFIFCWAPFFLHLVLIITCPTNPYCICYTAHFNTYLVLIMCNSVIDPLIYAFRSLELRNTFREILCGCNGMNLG

[8] = target: T5, Equilibrative nucleoside transporter 1 (Homo sapiens, UniProt Q99808)
T5 sequence (Q99808 whole entry): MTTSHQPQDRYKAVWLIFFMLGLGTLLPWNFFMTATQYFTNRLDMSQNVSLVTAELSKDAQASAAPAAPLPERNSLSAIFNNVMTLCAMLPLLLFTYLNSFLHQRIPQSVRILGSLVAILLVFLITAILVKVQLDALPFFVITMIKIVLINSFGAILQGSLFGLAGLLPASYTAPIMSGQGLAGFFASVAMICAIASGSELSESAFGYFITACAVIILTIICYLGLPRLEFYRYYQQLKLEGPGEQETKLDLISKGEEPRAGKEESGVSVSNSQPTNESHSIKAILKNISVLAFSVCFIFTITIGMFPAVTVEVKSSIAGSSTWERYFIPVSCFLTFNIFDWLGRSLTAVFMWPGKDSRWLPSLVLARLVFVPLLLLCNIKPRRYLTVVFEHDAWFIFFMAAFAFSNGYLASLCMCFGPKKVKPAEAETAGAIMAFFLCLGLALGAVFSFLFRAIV
Further: assay procedure not described here.

Gamma-aminobutyric acid receptor subunit alpha-1, sequence (P62813 whole entry): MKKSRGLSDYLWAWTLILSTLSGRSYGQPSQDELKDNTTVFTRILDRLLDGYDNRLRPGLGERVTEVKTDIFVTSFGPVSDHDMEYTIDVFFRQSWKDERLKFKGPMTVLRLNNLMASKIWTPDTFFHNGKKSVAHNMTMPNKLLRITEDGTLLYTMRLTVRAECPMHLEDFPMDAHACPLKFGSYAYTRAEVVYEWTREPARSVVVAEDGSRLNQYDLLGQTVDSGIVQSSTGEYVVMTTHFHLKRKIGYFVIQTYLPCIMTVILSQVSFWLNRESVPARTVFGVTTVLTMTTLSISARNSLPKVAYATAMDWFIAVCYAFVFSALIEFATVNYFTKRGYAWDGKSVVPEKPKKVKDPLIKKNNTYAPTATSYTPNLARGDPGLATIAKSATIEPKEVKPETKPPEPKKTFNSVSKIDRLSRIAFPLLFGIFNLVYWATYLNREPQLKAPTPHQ

Structure (SMILES) | AC50 [1] [µM] | AC50 [2] [µM] | AC50 [3] [µM] | AC50 (Progesterone receptor [4]) [µM] | AC50 (Progesterone receptor [5]) [µM] | AC50 (B2 bradykinin receptor) [µM] | AC50 [6] [µM] | AC50 [7] [µM] | AC50 (Melanocortin receptor 3) [µM] | AC50 [8]
CNC(=O)Oc1cccc2ccccc12 [CARBARIL] | > 30 |  |  |  |  |  |  |  |  | 
O=C1CCc2cc(OCCCCc3nnnn3C3CCCCC3)ccc2N1 [CILOSTAZOL] |  | 3.06 | > 30 | > 30 | > 30 | > 30 | > 30 | > 30 | > 30 | 30 µM
O=C1CN(/N=C/c2ccc(-c3ccc([N+](=O)[O-])cc3)o2)C(O)=N1 [DANTROLENE] |  | > 10 | > 10 | > 10 | > 10 | > 10 | > 10 | > 10 | > 10 | > 10 µM
CN(C)CC[C@@H](c1ccc(Cl)cc1)c1ccccn1 [DEXCHLORPHENIRAMINE] |  | 12 | 26 | > 30 | > 30 | > 30 | > 30 | > 30 | > 30 | > 30 µM
CC(C)N(CCC(C(N)=O)(c1ccccc1)c1ccccn1)C(C)C (stereo not given) [DISOPYRAMIDE] |  | 6.73 | > 10 | 27 | > 30 | > 30 | > 10 | > 30 | > 30 | > 30 µM
C[C@]12C=CC(=O)N[C@@H]1CC[C@@H]1[C@@H]2CC[C@]2(C)[C@@H](C(=O)Nc3cc(C(F)(F)F)ccc3C(F)(F)F)CC[C@@H]12 [DUTASTERIDE] |  | > 10 | > 10 | > 10 | > 10 | > 10 | > 10 | > 10 | > 10 | > 10 µM
CC(N)C12CC3CC(CC(C3)C1)C2 (stereo not given) [RIMANTADINE] |  | > 10 | > 10 | > 10 | > 10 | > 10 | > 10 | > 10 | > 10 | > 10 µM
CC(C)c1nc(N(C)S(C)(=O)=O)nc(-c2ccc(F)cc2)c1/C=C/[C@@H](O)C[C@@H](O)CC(=O)O [ROSUVASTATIN] |  | > 30 | > 30 | > 30 | > 30 | > 30 | > 30 | > 30 | > 30 | > 30 µM
N[C@@H](CC(=O)N1CCn2c(nnc2C(F)(F)F)C1)Cc1cc(F)c(F)cc1F [SITAGLIPTIN] |  | > 10 | > 30 | > 30 | > 30 | > 10 | > 30 | > 10 | > 30 | > 30 µM
O=C1C(CC[S+]([O-])c2ccccc2)C(=O)N(c2ccccc2)N1c1ccccc1 (stereo not given) [SULFINPYRAZONE] |  | > 10 | > 10 | > 10 | > 10 | > 10 | > 30 | > 10 | > 10 | > 10 µM
C=CC[C@@H]1/C=C(\C)C[C@H](C)C[C@H](OC)[C@H]2O[C@@](O)(C(=O)C(=O)N3CCCC[C@H]3C(=O)O[C@H](/C(C)=C/[C@@H]3CC[C@@H](O)[C@H](OC)C3)[C@H](C)[C@@H](O)CC1=O)[C@H](C)C[C@@H]2OC [TACROLIMUS ANHYDROUS] |  | > 10 | > 10 | > 30 | > 30 | > 30 | > 30 | > 30 | > 30 | 7.49 µM and > 30 µM
Cc1onc(-c2ccccc2)c1-c1ccc(S(N)(=O)=O)cc1 [VALDECOXIB] |  | > 10 | > 10 | > 30 | > 30 | > 30 | > 10 | > 30 | > 30 | > 30 µM
